According to patent US8722667B2, “Compositions and methods for inhibiting the proliferation of cells” (The Regents of the University of Michigan, priority 1999, dated 2014):

Assays:
[1] = tested on: isolated rat liver mitochondria; assay: ROS production in isolated mitochondria (DCF formation); assay type: biochemical; details: for ROS production: mitochondria in state 4; for increase of the rate of ROS production versus control: state 3 respiration, after the induction phase
Description: Male Long Evans rats are starved overnight and sacrificed by decapitation. Liver samples are homogenized in ice cold buffer A (250 mM sucrose, 10 mM Tris, 0.1 mM EGTA, pH 7.4), and nuclei and cellular debris are pelleted ([…], 830g, 4° C.). Mitochondria are collected by centrifugation (10 min, 15,000g, 4° C.), and the supernatant is collected as the S15 fraction. The mitochondrial pellet is washed three times with buffer B (250 mM sucrose, 10 mM Tris, pH 7.4), and re-suspended in buffer B at 20-30 mg/mL. Mitochondria are diluted (0.5 mg/mL) in buffer C (200 mM sucrose, 10 mM Tris, pH 7.4, 1 mM KH2PO4, 10 μM EGTA, 2.5 μM rotenone, 5 mM succinate) containing 2′,7′-dichlorodihydrofluorescin diacetate (DCFH-DA, 1 μM). For state 3 measurements, ADP (2 mM) is included in the buffer, and prior to the addition of Bz-423, mitochondria are allowed to charge for 2 min. To induce state 4, oligomycin (10 μM) is added to buffer C. […] To detect effects on O2^− and delta ψm, mitochondria are incubated for 15 min at 37° C. in buffer C with vehicle, Bz-423, or CCCP containing DHE (5 μM) or DIOC6(3) (20 nM), and aliquots are removed for analysis by fluorescence microscopy.
O2^− production by Bz-423 may result from binding to a protein within mitochondria or a target in another compartment that signals mitochondria to generate ROS. To distinguish between these alternatives, isolated rat liver mitochondria were assayed for ROS production by monitoring the oxidation of 2′,7′-dichlorodihydrofluorescin diacetate to of 2′,7′-dichlorofluorescin in the presence and absence of Bz-423. In this assay, the rate of DCF production increased after a lag period during which endogenous reducing equivalents were consumed and the acetate moieties on the probe were hydrolyzed to yield 2′,7′-dichlorodihydrofluorescin, the redox-active species.

B cells = assay: collapse of mitochondrial transmembrane potential, DiOC6(3); assay type: cell-based; details: by 5 hours
Description: To detect O2^−, cells are incubated with DHE (10 μM) for 30 min at 37° C. and are analyzed by flow cytometry to measure ethidium fluorescence. Flow analysis of mitochondrial transmembrane potential (ψm) is conducted by labeling cells with DiOC6(3) (20 nM) for 15 min at 37 degrees C. A positive control for disruption of ψm is established using carbonyl cyanide m-chlorophenylhydrazone (CCCP, 50 μM). Caspase activation assays are performed with FAM-VAD-fluoromethylketone. Processing of the substrate is evaluated by flow cytometry.
To characterize the death mechanism engaged by Bz-423, intracellular ROS, ΔΨm, cytochrome c release, caspase activation, and DNA fragmentation were measured over time (the results presented are for B cells but do characterize the response in many different cell types). The first event detected after exposure to Bz-423 is an increase in the fraction of cells that stain with dihyroethedium (DHE), a redox-sensitive agent that reacts specifically with O2^−.
Collapse of ΔΨm was detected using DiOC6(3), a mitochondria-selective potentiometric probe.

[2] = tested on: migration inhibitory factor (MIF); assay: gene expression profiling of treated cells; assay type: cell-based, human
Source text: In response to antigenic or mitogenic stimulation, lymphocytes secrete protein mediators, one of which is named migration inhibitory factor (MIF) for its ability to prevent the migration of macrophages in vitro. MIF may be an anti-tumor agent. In addition, the ability of MIF to prevent the migration of macrophages may be exploited for treating wounds. MIF may alter the immune response to different antigens. MIF links chemical and immunological detoxification systems. MIF was induced approximately 10-fold by Bz-423. Thus, the present invention contemplates the use of MIF as a target of the compounds of the present invention.
In vitro testing with Ramos cells to determine the changes in gene expression (at the level of mRNA) induced by Bz-423 was performed by culturing cells at a density of 500,000 cells per ml. Solvent control (DMSO, final concentration 0.1% V/V]), Bz-423, or Bz-OMe (10 μM) was added to cells. After 4 h, cells were harvested and RNA prepared using Trizol Reagent (#15596-018, Life Technologies, Rockville, Md.) and the RNeasy Maxi Kit (#75162, Qiagen, Valencia, Calif.) according to manufacturers protocols. Single stranded cDNA was synthesized by reverse transcription using poly (A) RNA present in the starting total RNA sample. […] Hybridization results were quantified using a GeneArray scanner and analysis carried out according to the instructions provided by Affymetrix.

[3] = tested on: ornithine decarboxylase (ODC); assay: ODC activity in treated cells, conversion of 3H-ornithine to putrescine; assay type: cell-based; details: cells treated 4 h
Description: In these experiments, the conversion of ornithine to putrescine was quantified using ^3H-ornithine. For comparisons, control cells were treated with vehicle control or difluoromethyl ornithine (DFMO), a potent inhibitor of ornithine decarboxylase (like Bz-423, DFMO is a potent anti-proliferative agent). […] The reduction in ODC activity was paralleled by a decrease in ODC protein levels measured under the same conditions.
As described above, Bz-423 induced apoptosis was signaled by an ROS response that arose from MRC complex III as a result of the state 3 to 4 transition. It was next sought to determine if the ROS response, critical for apoptosis, also mediated these effects on ODC. If the ROS was required for the decrease in ODC activity, it would likewise be implicated as potentially part of the anti-proliferative response to Bz-423. To test this, Ramos cells were treated with Bz-423, DFMO, or vehicle control for 4 h. In parallel, a second group of cells was pre-incubated with MnTBAP to limit the ROS and then cultured with Bz-423, DFMO, and vehicle control.

[4] = tested on: sub-mitochondrial particles; assay: redox cycling, NADH and NAD(P)H oxidation assays with sub-mitochondrial particles; assay type: biochemical; details: SMPs
Description: By contrast, replacing the hydroxyl with chlorine or azide, or methylating the phenol effectively abolishes the cytotoxic activity of Bz-423. […] Such agents accept an electron from MRC enzymes and transfer it back to the chain at point of higher reducing potential. This type of ‘redox cycling’ consumes endogenous reducing equivalents (e.g., glutathione) along with […] nucleotides and results in cell death. To distinguish between these alternatives, it was determined whether Bz-423 redox cycles in the presence of sub-mitochondrial particles using standard NADH and NAD(P)H oxidation assays.

Ramos cells = assay: cytotoxicity versus antiproliferation in media with 10% FBS; assay type: cell-based, human; details: >20 μM
Description: Like most 1,4-benzodiazepines, Bz-423 binds strongly to bovine serum albumin (BSA), which reduces the effective concentration of drug free in solution. For example, in tissue culture media containing 10% (v/v) fetal bovine serum (FBS), ca. 99% of the drug is bound to BSA. Therefore, cell culture cytotoxicity assays are conducted in media with 2% FBS to reduce binding to BSA and increase the free [Bz-423]. Under these conditions, the dose response-curve is quite sharp such that there is a limited concentration range at which Bz-423 is only partly effective. Since some benzodiazepines are known to have anti-proliferative properties, the effect of Bz-423 at concentrations <ED50 were carefully analyzed and observed that in addition to inducing apoptosis, Bz-423 prevented cell growth after 3 d in culture. In these low serum conditions, the cytotoxic and anti-proliferative effects overlapped making it difficult to study each effect independently. […] While higher amounts of drug may also block proliferation, it caused apoptosis well before the effects on proliferation could be observed.

Namalwa ρ0 cells = assay: ROS response in cells devoid of mtDNA; assay type: cell-based
Description: ROS in response to Bz-423. Complexes I-IV in the MRC are partially encoded by mitochondrial DNA (mtDNA). […] Because ethidium bromide is toxic to Ramos cells, these experiments were conducted with Namalwa B cells, another mature B cell line.

panel of cells = assay: antiproliferation of Bz-Cl against the panel of cells, 3 d; assay type: cell-based; details: after 3 d
[5] = biological target: T1, mitochondrial F1F0-ATPase (Bos taurus, UniProt P13621); assay: ATPase activity in sub-mitochondrial particles (SMPs); assay type: biochemical, bovine; details: at 80 μM
T1 construct: from tissue
Source text: Oligomycin, a macrolide natural product that binds to the mitochondrial F1F0-ATPase, induces a state 3 to 4 transition and generates O2^− like Bz-423. Based on these similarities, it is possible that the F1F0-ATPase is also the molecular target for Bz-423. To test this hypothesis, the effect of Bz-423 on ATPase activity in sub-mitochondrial particles (SMPs) was examined.
>40 derivatives of Bz-423 were developed to determine the elements on this novel agent required for biological activity. […] The potency of these analogues in cell based assays correlated with the ED50 values in ATPase inhibition experiments using SMPs.

CN1C(=O)C(Cc2ccc3ccccc3c2)N=C(c2ccc(O)cc2)c2cc(Cl)ccc21 (stereo not shown) [Bz-423]
ROS production [1]: does not stimulate ROS | increase of the rate of ROS production versus control [1]: nearly two-fold | cells with collapse of ΔΨm (B cells): > 90 % of cells | induction of MIF [2]: approximately 10 fold | effect on ODC activity [3]: significantly reduced ODC activity in a dose-dependant fashion | substrate oxidation (redox cycling) [4]: does not lead to substrate oxidation | cellular effect observed (Ramos cells): only apoptosis was observed | ROS response (Namalwa ρ0 cells): did not result in an ROS response

CN1C(=O)C(Cc2ccc3ccccc3c2)N=C(c2ccc(Cl)cc2)c2cc(Cl)ccc21 (stereo not shown) [Bz-Cl]
ED50 for reduced proliferation compared with Bz-423 (panel of cells): comparable ED50 values

antimycin A [reference compound]
ROS production [1]: active | increase of the rate of ROS production versus control [1]: nearly two-fold

CN1C(=O)CN=C(c2ccc(Cl)cc2)c2cc(Cl)ccc21 [4-Cl-diazepam, 4-chlorodiazepam]
inhibition of mitochondrial ATPase activity [5]: do not significantly inhibit

CCC(C)N(C)C(=O)c1cc2ccccc2c(-c2ccccc2Cl)n1 (stereo not shown) [PK11195]
inhibition of mitochondrial ATPase activity [5]: do not significantly inhibit
